Measured values: patent publication US11800869B2, “Use of 6-oxo-1,4,5,6-tetrahydropyridazine-3-carboxylic acid, 1-methyl 6-oxo-1,4,5,6-tetrahydropyridazine-3-carboxylic acid and 1-alkyl-6-oxo-1,4,5,6-tetrahydropyridazine-3-carboxylic acid for improving growth performance in plants” (Advanced Crop Chem LLP, priority 2020, dated 2023)

Assays:
Format in all cases: in vivo
[1] = tested on: Winter wheat variety AWC 13; assay: Wheat seed treatment, greenhouse, root biomass (Example 1); settings: seed treatment 10g per 1 ton of seed; greenhouse 21° C; 30 days after planting; untreated 0.65
Method: Wheat seeds were treated with 6-oxo-1,4,5,6 tetrahydropyridazine-3-carboxylic acid (THP) and treated plants to examine the impact on shoot and root biomass. Winter wheat variety AWC 13 seeds were treated with either 6-oxo-1,4,5,6-tetrahydropyridazine-3-carboxylic acid (THP) or 1-methyl 6-oxo-1,4,5,6 tetrahydropyridazine-3-carboxylic acid (MTHP) at an effective rate of 10g diluted in 2 L water plus 0.25% Nouryon wetter and applied to 1 ton of seed. These seed were planted in coarse river sand and grown in a greenhouse under ambient light at the greenhouse at 21° C. Plants were irrigated every other day with water containing 50% strength Hoaglands solution. Plants were assessed for emergence and biomass accumulation 30 days after planting. The plants from seeds treated with 6-oxo-1,4,5,6-tetrahydropyridizin-3-carboxylic acid or 1-methyl 6-oxo-1,4,5,6 tetrahydropyridazine-3-carboxylic acid had larger root biomasses (0.83, 0.85 g, dry weight/plant) compared with plants from untreated seeds (0.65 g dry weight/plant).

[2] = tested on: wheat plants (Variety Skyfall); assay: Foliar treatment of greenhouse grown wheat, foliar and root biomass (Example 4); settings: foliar treatment, 30 days later, Zadocks growth stage 22-24
Method: Wheat, corn and pepper seeds were treated with 6-oxo-1,4,5,6-tetrahydropyridizine-3-carboxylic acid (THP) using the same methodology and growth conditions as described in example 1 and the resulting plants were also treated with a light foliar cover spray using an electric hand-held sprayer. (100 g in 200 L water plus 0.25% Nouryon wetter) of 6-oxo-1,4,5,6 tetrahydropyridazine-3-carboxylic acid (30 days post emergence (wheat at Zadoks GS 14 (see FIG. 1), maize at V2, Pepper at 3-4 leaf stage) and then assessed for root and shoot biomass 45 days later. At 75 days post planting the plants were assessed for root and shoot biomass as measured with dry weight. Greenhouse grown wheat plants (Variety […]) were given foliar treatment of 1-methyl 6-oxo-1,4,5,6 tetrahydropyridazine-3-carboxylic acid (MTHP) or 6-oxo-1,4,5,6 tetrahydropyridazine-3-carboxylic acid (THP), utilizing the same methodology as in example 2. Foliar and root biomass were determined 30 days later at Zadocks growth stage 22-24.

[3] = tested on: Wheat plants (Variety AWC 13); assay: Foliar treatment of wheat, foliar and root dry biomass (Example 5); settings: foliar treatment at Zadoks GS 15-20, 30 days after application, mean of 10 plants
Excerpt: Wheat plants (Variety AWC 13) were given a foliar treatment of 6-oxo-1,4,5,6-tetrahydropyridazine-3-carboxylic acid(THP) or 1-methyl 6-oxo-1,4,5,6 tetrahydropyridazine-3-carboxylic acid (MTHP) and their foliar and root dry biomass determined 30 days after application. The foliar applications were applied at approximately at Zadoks GS 15-20 (see FIG. 1) and assessed 30 days later at Zadoks GS 22-24 (also shown in FIG. 1).

[4] = tested on: Field grown wheat plants (Var: AWC 13); assay: Foliar treatment of field grown wheat (Example 6); settings: foliar treatment at Zadoks GS 25-26, 100 g in 200 L water, mean of 10 plants
Method: Field grown wheat plants (Var: AWC 13) were given foliar treatment at Zadoks GS 25-26 (FIG. 1) of 6-oxo-1,4,5,6 tetrahydropyridazine-3-carboxylic acid (THP) or 1-methyl 6-oxo-1,4,5,6 tetrahydropyridazine-3-carboxylic acid (MTHP) both at 100 g in 200 L water plus 0.25% Nouryon wetter. Plants were grown under standard UK wheat growing cultural practice (https://andb.org.uk/wheatgg). Yield was assessed at harvest.

Wheat = Wheat seed treatment, field grown, root biomass (Example 7); settings: untreated 0.66
Method: Wheat seeds were treated with 1-methyl 6-oxo-1,4,5,6 tetrahydropyridazine-3-carboxylic acid treated plants to examine the impact on root biomass for field grown plants. Wheat seeds were treated with 1-methyl 6-oxo-1,4,5,6 tetrahydropyridazine-3-carboxylic acid and field grown. The plants from seeds treated with 1-methyl 6-oxo-1,4,5,6 tetrahydropyridazine-3-carboxylic acid had larger root biomass (0.84 g dry weight/plant) compared with plants from untreated seeds (0.66 g dry weight/plant).

`CN1N=C(C(=O)O)CCC1=O` [MTHP, 1-methyl 6-oxo-1,4,5,6 tetrahydropyridazine-3-carboxylic acid] was tested, and the root biomass [1] was 0.85 g, dry weight/plant, the “Dry Weight Shoot” value ([2]; Con 0.55) was 0.7 g and the “Dry Weight Root” value ([2]; Con 1.03) was 1.64 g. For the same compound, the “Dry Weight Shoot” value ([3]; Con 0.47) was 0.98, the “Dry Weight Root” value ([3]; Con 0.65) was 2.06 and the “Dry Weight Shoot” value ([4]; Con 0.47) was 0.98. The “Dry Weight Root” value ([4]; Con 0.65) was 2.06 and the root biomass (Wheat) was 0.84 g dry weight/plant.
